Measured values published in US6692753B2, “Potentiation of the immune response” (priority 1997, dated 2004).
“Also recorded” adds a separate entry of the source.

Legend:
[1] = test system: PBMC from HIV-infected individuals; assay: Proliferation of PBMC from HIV-infected individuals, 3H thymidine incorporation; type: cell-based, human; conditions: for stimulation of proliferation: higher doses (10^−4M), PBMC of HIV-infected patients; for stimulation of proliferation (incorporation of 3H thymidine, cpm): very low / low doses, PBMC from HIV-infected patients, in vitro
Description: If desired, additional in vitro assays can be carried out using candidate compounds of the invention, prior to their use in vivo. One such assay employs the candidate compound at a very low concentration, in a test designed to determine whether at low concentrations the compound can stimulate the proliferation of PBMC from HIV infected patients in vitro. As is shown in the data of FIG. 4, stimulation can be measured by, e.g., incorporation of a labelled nucleotide. Peripheral blood mononuclear cells (PBMC) were obtained by standard methods from HIV-infected individuals, and from uninfected individuals. Varying dosages of KBP or VBP were contacted with the PBMC in vitro, and stimulation of proliferation was measured by incorporation of ^3H thymidine (cpm).

[2] = test system: cytoplasmic T-cell enzyme (post-prolyl dipeptidase) in Jurkat T-cell cytoplasmic extract; assay: Enzymatic activity of Jurkat T-cell cytoplasmic extract, fluorescent cleavage of Ala-ProAFC; type: biochemical, human; conditions: varying concentrations
Description: A suitable enzyme-containing cell extract can be prepared as follows. First, Jurkat cells (10^6-10^11 cells) are grown and a cell pellet is obtained by centrifugation. The cell pellet is stored in frozen condition.
For use in the assay, the frozen pellet is thawed by the addition of ice cold lysis buffer, in the amount of approximately 1 ml per 10^8 cells. The liquified material is homogenized with ten strokes of a Dounce homogenizer, and then clarified by centrifugation at 1500 g. The supernatant is removed (and saved), and the 1500 g. pellet is resuspended in lysis buffer and homogenized with ten strokes of a Dounce homogenizer. Clarification is again carried out by centrifugation at 1500 g, 4° C.
The 1500 g supernatants are then combined, and EDTA is added to 5mM. The resultant liquid is centrifuged at 75,000 g at 4° C. for twenty minutes, and the supernatant is then removed and centrifuged at 175,000 g. at 4° C., for 60 minutes. […]
In the assay we carried out, we employed a fluorescence spectrometer for excitation at 400 nm and emission at 505 nm. […]
In the test samples, multiple samples are run containing varying concentrations, down to 10^−8 M, of the test compound. […] Enzymatic activity is measured as the accumulation of fluoresence intensity (i.e., substrate cleavage product) over time (1 min.).

[3] = test system: CD26+ and CD26− PBMC populations; assay: Cell death of sorted CD26+ and CD26− PBMC populations, 7AAD flow cytometry; type: cell-based, human; conditions: overnight, various (moderate) concentrations
Description: PBMC were stained with the anti-CD26 monoclonal antibody, 4 EL, and then sorted into CD26^+ and CD26^− populations using a facstar plus dual lasar flow cytometry. The cells expressing the highest level )top 5%) of CD26 and the cells expressing the lowest level (bottom 10%) of CD26 were isolated as the CD26^+ and CD26^− populations respectively. […] The CD26^+ and CD26^− populations were cultured overnight in the presence or absence of various concentrations of VBP. The amount of death induced by VBP treatment was determined by 7AAD flow cytometry analysis. Data represent mean percent of death from duplicate samples +/−SD.
The amount of cell death was determined by 7AAD flow cytometry analysis. Data represent mean % of death from duplicate samples.

[4] = test system: CD4/CD8+ T cells; assay: Cell death of purified resting T-cells, 7AAD flow cytometry; type: cell-based, human; conditions: overnight incubation, 10^−4M or 10^−6M
Description: CD19+B cells and CD4/CD8+ T cells were isolated (>90% and >97% purity, respectively). The cells were then incubated overnight in the presence or absence of VBP (10^−4M or 10^−6M). The amount of death induced by VBP treatment was determined by 7AAD flow cytometry analysis. The data represents the mean percent of death from duplicate samples.
The amount of cell death was determined by 7AAD flow cytometry analysis. Data represent % of cell death from duplicate samples.

Row | SMILES | stimulation of proliferation [1] | stimulation of proliferation (incorporation of 3H thymidine, cpm) [1] | inhibition of enzymatic activity (AFC release from Ala-ProAFC) [2] | inhibition of enzymatic activity (AFC release from Ala-ProAFC) ([2]; listed as val-boroPro) | cell death / apoptosis (7AAD) [3] | cell death / apoptosis (7AAD) ([3]; listed as VBP) | cell death / apoptosis (7AAD) [4] | cell death / apoptosis (7AAD) ([4]; listed as VBP)
1 | NCCCC[C@H](N)C(=O)N1CCC[C@H]1B(O)O [Lys-boroPro] | do not have this effect | stimulated proliferation; also recorded: cause proliferation | – | – | – | – | – | –
2 | CC(C)[C@H](N)C(=O)N1CCC[C@H]1B(O)O [Val-boroPro] | do not have this effect | stimulated proliferation; also recorded: cause proliferation | inhibited | inhibited the cytoplasmic enzyme | equally susceptible | dose-dependent apoptosis in both CD26^+ and CD26^− populations; also recorded: equally susceptible | highly sensitive | dose-dependent apoptosis
